Data taken from ChEMBL document CHEMBL3994622, “Design and synthesis of new RAF kinase-inhibiting antiproliferative quinoline derivatives. Part 2: Diarylurea derivatives” (Eur J Med Chem, 2017).

What was measured:
Assay type in all cases: functional
A549 = test: Growth inhibition of human A549/ATCC cells assessed as cell growth at 30 uM incubated for 48 hrs by sulforhodamine B assay relative to control; conditions: A549, 48 h, read-out: Activity
MCF7 [1] = test: Growth inhibition of human MCF7 cells assessed as cell growth at 3 uM incubated for 48 hrs by sulforhodamine B assay relative to control; conditions: MCF7, 48 h, read-out: Activity
MDA-MB-435 = test: Growth inhibition of human MDA-MB-435 cells assessed as cell growth at 0.3 uM incubated for 48 hrs by sulforhodamine B assay relative to control; conditions: MDA-MB-435, 48 h, read-out: Activity
RXF 393 [2] = test: Growth inhibition of human RXF393 cells assessed as cell growth at 0.003 uM incubated for 48 hrs by sulforhodamine B assay relative to control; conditions: RXF 393, 48 h, read-out: Activity
KM12 [3] = test: Growth inhibition of human KM12 cells assessed as cell growth at 3 uM incubated for 48 hrs by sulforhodamine B assay relative to control; conditions: KM12, 48 h, read-out: Activity
TK-10 [4] = test: Growth inhibition of human TK10 cells assessed as cell growth at 0.03 uM incubated for 48 hrs by sulforhodamine B assay relative to control; conditions: TK-10, 48 h, read-out: Activity
COLO 205 [5] = test: Growth inhibition of human COLO205 cells assessed as cell growth at 0.003 uM incubated for 48 hrs by sulforhodamine B assay relative to control; conditions: COLO 205, 48 h, read-out: Activity
DU-145 = test: Growth inhibition of human DU145 cells assessed as cell growth at 30 uM incubated for 48 hrs by sulforhodamine B assay relative to control; conditions: DU-145, 48 h, read-out: Activity
OVCAR-8 = test: Growth inhibition of human OVCAR8 cells assessed as cell growth at 0.3 uM incubated for 48 hrs by sulforhodamine B assay relative to control; conditions: OVCAR-8, 48 h, read-out: Activity
KM12 [6] = test: Growth inhibition of human KM12 cells assessed as cell growth at 0.03 uM incubated for 48 hrs by sulforhodamine B assay relative to control; conditions: KM12, 48 h, read-out: Activity
SK-MEL-28 [7] = test: Growth inhibition of human SK-MEL-28 cells assessed as cell growth at 0.3 uM incubated for 48 hrs by sulforhodamine B assay relative to control; conditions: SK-MEL-28, 48 h, read-out: Activity
NCI-H460 [8] = test: Growth inhibition of human NCI-H460 cells assessed as cell growth at 3 uM incubated for 48 hrs by sulforhodamine B assay relative to control; conditions: NCI-H460, 48 h, read-out: Activity
HCC 2998 = test: Growth inhibition of human HCC2998 cells assessed as cell growth at 0.3 uM incubated for 48 hrs by sulforhodamine B assay relative to control; conditions: HCC 2998, 48 h, read-out: Activity
TK-10 [9] = test: Growth inhibition of human TK10 cells assessed as cell growth at 30 uM incubated for 48 hrs by sulforhodamine B assay relative to control; conditions: TK-10, 48 h, read-out: Activity
HCT-15 = test: Growth inhibition of human HCT15 cells assessed as cell growth at 30 uM incubated for 48 hrs by sulforhodamine B assay relative to control; conditions: HCT-15, 48 h, read-out: Activity
RPMI-8226 = test: Growth inhibition of human RPMI8226 cells assessed as cell growth at 10 uM incubated for 48 hrs by sulforhodamine B assay relative to control; conditions: RPMI-8226, 48 h, read-out: Activity
OVCAR-5 = test: Growth inhibition of human OVCAR5 cells assessed as cell growth at 100 uM incubated for 48 hrs by sulforhodamine B assay relative to control; conditions: OVCAR-5, 48 h, read-out: Activity
MOLT-4 = test: Growth inhibition of human MOLT4 cells assessed as cell growth at 0.1 uM incubated for 48 hrs by sulforhodamine B assay relative to control; conditions: MOLT-4, 48 h, read-out: Activity
NCI-H322M = test: Growth inhibition of human NCI-H322M cells assessed as cell growth at 0.1 uM incubated for 48 hrs by sulforhodamine B assay relative to control; conditions: read-out: Activity
MCF7 [10] = test: Growth inhibition of human MCF7 cells assessed as cell growth at 10 uM incubated for 48 hrs by sulforhodamine B assay relative to control; conditions: MCF7, 48 h, read-out: Activity
NCI-H460 [11] = test: Growth inhibition of human NCI-H460 cells assessed as cell growth at 0.1 uM incubated for 48 hrs by sulforhodamine B assay relative to control; conditions: NCI-H460, 48 h, read-out: Activity
RXF 393 [12] = test: Growth inhibition of human RXF393 cells assessed as cell growth at 1 uM incubated for 48 hrs by sulforhodamine B assay relative to control; conditions: RXF 393, 48 h, read-out: Activity
NCI-H522 = test: Growth inhibition of human NCI-H522 cells assessed as cell growth at 0.01 uM incubated for 48 hrs by sulforhodamine B assay relative to control; conditions: NCI-H522, 48 h, read-out: Activity
ACHN = test: Growth inhibition of human ACHN cells assessed as cell growth at 0.1 uM incubated for 48 hrs by sulforhodamine B assay relative to control; conditions: read-out: Activity
NCI-H23 [13] = test: Growth inhibition of human NCI-H23 cells assessed as cell growth at 100 uM incubated for 48 hrs by sulforhodamine B assay relative to control; conditions: NCI-H23, 48 h, read-out: Activity
NCI/ADR-RES = test: Growth inhibition of human NCI/ADR-RES cells assessed as cell growth at 0.1 uM incubated for 48 hrs by sulforhodamine B assay relative to control; conditions: read-out: Activity
SK-MEL-28 [14] = test: Growth inhibition of human SK-MEL-28 cells assessed as cell growth at 0.1 uM incubated for 48 hrs by sulforhodamine B assay relative to control; conditions: SK-MEL-28, 48 h, read-out: Activity
NCI-H23 [15] = test: Growth inhibition of human NCI-H23 cells assessed as cell growth at 10 uM incubated for 48 hrs by sulforhodamine B assay relative to control; conditions: NCI-H23, 48 h, read-out: Activity
HCT-116 = test: Growth inhibition of human HCT116 cells assessed as cell growth at 0.1 uM incubated for 48 hrs by sulforhodamine B assay relative to control; conditions: HCT-116, 48 h, read-out: Activity
SNB-19 = test: Growth inhibition of human SNB19 cells assessed as cell growth at 0.1 uM incubated for 48 hrs by sulforhodamine B assay relative to control; conditions: SNB-19, 48 h, read-out: Activity
COLO 205 [16] = test: Growth inhibition of human COLO205 cells assessed as cell growth at 100 uM incubated for 48 hrs by sulforhodamine B assay relative to control; conditions: COLO 205, 48 h, read-out: Activity
UACC-62 = test: Growth inhibition of human UACC62 cells assessed as cell growth at 1 uM incubated for 48 hrs by sulforhodamine B assay relative to control; conditions: UACC-62, 48 h, read-out: Activity
BT-549 = test: Growth inhibition of human BT549 cells assessed as cell growth at 0.1 uM incubated for 48 hrs by sulforhodamine B assay relative to control; conditions: BT-549, 48 h, read-out: Activity
T47D = test: Growth inhibition of human T47D cells assessed as cell growth at 100 uM incubated for 48 hrs by sulforhodamine B assay relative to control; conditions: read-out: Activity

Row | SMILES | growth at 30 µM (A549) [%] | growth at 3 µM (MCF7 [1]) [%] | growth at 0.3 µM (MDA-MB-435) [%] | growth at 0.003 µM (RXF 393 [2]) [%] | growth at 3 µM (KM12 [3]) [%] | growth at 0.03 µM (TK-10 [4]) [%] | growth at 0.003 µM (COLO 205 [5]) [%] | growth at 30 µM (DU-145) [%] | growth at 0.3 µM (OVCAR-8) [%] | growth at 0.03 µM (KM12 [6]) [%] | growth at 0.3 µM (SK-MEL-28 [7]) [%] | growth at 3 µM (NCI-H460 [8]) [%] | growth at 0.3 µM (HCC 2998) [%] | growth at 30 µM (TK-10 [9]) [%] | growth at 30 µM (HCT-15) [%] | growth at 10 µM (RPMI-8226) [%] | growth at 100 µM (OVCAR-5) [%] | growth at 0.1 µM (MOLT-4) [%] | growth at 0.1 µM (NCI-H322M) [%] | growth at 10 µM (MCF7 [10]) [%] | other results
1 | COc1cc2cc(Oc3ccc(NC(=O)Nc4ccc(Cl)c(C(F)(F)F)c4)cc3)c(C)nc2cc1OC | -80 | 7 | 91 | 106 | 7 | 91 | 97 | -70 | 96 | 93 | 91 | 3 | 109 | -46 | -76 | – | – | – | – | – | –
2 | COc1cc2cc(Oc3ccc(NC(=O)Nc4ccc(Cl)c(Cl)c4)cc3)c(C)nc2cc1OC | – | – | – | – | – | – | – | – | – | – | – | – | – | – | – | -22 | -44 | 109 | 103 | 8 | growth at 0.1 µM (NCI-H460 [11]): 103%; growth at 1 µM (RXF 393 [12]): 104%; growth at 0.01 µM (NCI-H522): 99%; growth at 0.1 µM (ACHN): 105%; growth at 100 µM (NCI-H23 [13]): -59%; growth at 0.1 µM (NCI/ADR-RES): 100%; growth at 0.1 µM (SK-MEL-28 [14]): 91%; growth at 10 µM (NCI-H23 [15]): 15%; growth at 0.1 µM (HCT-116): 102%; growth at 0.1 µM (SNB-19): 93%; growth at 100 µM (COLO 205 [16]): -100%; growth at 1 µM (UACC-62): 77%; growth at 0.1 µM (BT-549): 88%; growth at 100 µM (T47D): -54%
3 | COc1cc2cc(Oc3ccc(NC(=O)Nc4cc(C(F)(F)F)cc(C(F)(F)F)c4)cc3)c(C)nc2cc1OC | – | – | – | – | – | – | – | – | – | – | – | – | – | – | – | -8 | -78 | 104 | 90 | -59 | growth at 0.1 µM (NCI-H460 [11]): 107%; growth at 1 µM (RXF 393 [12]): 93%; growth at 0.01 µM (NCI-H522): 92%; growth at 0.1 µM (ACHN): 98%; growth at 100 µM (NCI-H23 [13]): -68%; growth at 0.1 µM (NCI/ADR-RES): 96%; growth at 0.1 µM (SK-MEL-28 [14]): 102%; growth at 10 µM (NCI-H23 [15]): -32%; growth at 0.1 µM (HCT-116): 106%; growth at 0.1 µM (SNB-19): 97%; growth at 100 µM (COLO 205 [16]): -79%; growth at 1 µM (UACC-62): 35%; growth at 0.1 µM (BT-549): 94%; growth at 100 µM (T47D): -82%
4 | Cc1nc2cc(O)c(O)cc2cc1Oc1ccc(NC(=O)Nc2ccc(Cl)c(Cl)c2)cc1 | -10 | 87 | 90 | 100 | 95 | 104 | 107 | -10 | 94 | 103 | 87 | 96 | 97 | 23 | 9 | – | – | – | – | – | –
